The results in this text go back to ChEMBL document CHEMBL4190382, “Targeting lysine specific demethylase 4A (KDM4A) tandem TUDOR domain - A fragment based approach” (Bioorg Med Chem Lett, 2018).

Changes are numbered by the printed parent chain. Active and inactive are the calls of the source. The calls are words filed in the database; no cut-off is given here.

Test [1] relates to T1, Lysine-specific demethylase 4A (Homo sapiens), O75164 [F932A].
T1 sequence (whole entry): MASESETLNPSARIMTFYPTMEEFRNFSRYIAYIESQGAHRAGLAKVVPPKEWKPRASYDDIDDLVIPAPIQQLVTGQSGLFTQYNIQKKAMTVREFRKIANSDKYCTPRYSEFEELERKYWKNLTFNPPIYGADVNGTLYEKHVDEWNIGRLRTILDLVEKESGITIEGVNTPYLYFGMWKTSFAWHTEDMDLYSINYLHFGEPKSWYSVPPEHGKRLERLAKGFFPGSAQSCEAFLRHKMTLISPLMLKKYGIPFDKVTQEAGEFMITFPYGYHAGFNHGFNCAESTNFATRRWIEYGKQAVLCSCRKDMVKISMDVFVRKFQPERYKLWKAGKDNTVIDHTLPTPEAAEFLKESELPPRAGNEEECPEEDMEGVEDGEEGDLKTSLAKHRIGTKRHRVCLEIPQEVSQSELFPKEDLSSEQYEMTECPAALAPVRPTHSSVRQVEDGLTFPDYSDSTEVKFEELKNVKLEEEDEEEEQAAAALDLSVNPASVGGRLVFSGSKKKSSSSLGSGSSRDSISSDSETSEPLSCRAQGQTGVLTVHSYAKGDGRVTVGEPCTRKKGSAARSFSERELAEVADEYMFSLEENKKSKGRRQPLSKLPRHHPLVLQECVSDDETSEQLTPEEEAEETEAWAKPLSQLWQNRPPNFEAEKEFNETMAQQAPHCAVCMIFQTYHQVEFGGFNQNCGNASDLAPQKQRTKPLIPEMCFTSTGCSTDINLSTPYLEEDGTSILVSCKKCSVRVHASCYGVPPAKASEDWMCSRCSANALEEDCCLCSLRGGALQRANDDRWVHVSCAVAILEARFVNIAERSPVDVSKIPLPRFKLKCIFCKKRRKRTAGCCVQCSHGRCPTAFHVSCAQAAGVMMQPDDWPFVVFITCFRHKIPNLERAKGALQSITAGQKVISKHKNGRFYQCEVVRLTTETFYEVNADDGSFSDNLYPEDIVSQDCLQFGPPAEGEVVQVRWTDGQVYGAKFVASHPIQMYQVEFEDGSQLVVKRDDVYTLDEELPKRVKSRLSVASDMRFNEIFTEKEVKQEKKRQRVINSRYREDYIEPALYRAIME
The test is described as follows: Binding affinity to thrombin cleavable N-terminal 6His tagged and 13C-IVLM labeled human KDM4A tandem TUDOR domain (897 to 1011 residues) F932A mutant expressed in Escherichia coli BL21(DE3)-T1R by ITC method. Background: Isothermal titration calorimetry measures the heat released or taken up as one component is titrated into another.

In test [2] the target is T2, Lysine-specific demethylase 4A (Homo sapiens, UniProt O75164).
T2 sequence (O75164 whole entry): T1 sequence (whole entry) with A932F
The test is described as follows: Binding affinity to thrombin cleavable N-terminal 6His tagged and 13C-IVLM labeled human KDM4A tandem TUDOR domain (897 to 1011 residues) expressed in Escherichia coli BL21(DE3)-T1R by ITC method.

By Kd is commonly meant the equilibrium constant for the complex coming apart. With `CN(C)C[C@H]1C2CCC(c3ccccc3)(C2)[C@H]1O` (some centres not stated), the result in test [1] was inactive. This molecule also displayed a Kd in test [2] of 81.7 µM.
